From paper PMC4910235, “Selenophene and thiophene-core estrogen receptor ligands that inhibit motility and development of parasitic stages of Haemonchus contortus” (Parasites & Vectors, 2016)
Where two headings read alike, the source gives them in different places.

How the values were obtained:
[1] = system: fourth-stage larvae (L4s) of H. contortus; assay: L4 motility assay; type: cell-based
Description: (§1) The selenophene and thiophene-core ligands (n = 74) (Additional file 1) were screened at a concentration of 20 μM on exsheathed third-stage larvae (xL3s) of H. contortus in 96-well microculture plates (cat. no. 3635; Corning 3650, Life Sciences, Corning, USA) using relevant control compounds (i.e. moxidectin and monepantel), as described previously. In brief, compounds were dissolved to a stock concentration of 10 mM in either dimethyl sulfoxide (DMSO) or methanol (Sigma-Adrich Scientific, St. Louis, USA). These ligands were then individually diluted to the final concentration of 20 μM using Luria Bertani medium (LB) supplemented with 100 IU/ml of penicillin, 100 μg/ml of streptomycin and 2.5 μg/ml of amphotericin (LB*). Compounds were dispensed (in triplicate) into the wells of a 96-well microculture plate using a multichannel pipette. In addition, the negative controls (LB*, LB* + 0.5 % solvent; six wells each), and positive controls (20 μM of monepantel; Zolvix, Novartis Animal Health, Basel, Switzerland and 20 μM of moxidectin; Cydectin, Virbac, Carros, France; triplicate wells) and xL3s (~300/well) were dispensed into wells of the plate using an automated multichannel pipette (Viaflo Assist/II, Integra Biosciences, Zizers, Switzerland). […], a video recording (5 s) was taken of each well of the 96-well microculture plate (containing xL3s) using a greyscale camera (Rolera Bolt CMOS, Qimaging Scientific, Surrey, Canada) and a motorised X-Y axis stage (BioPoint 2, Ludl Electronics Products, Hawthorne, USA). Individual videos were processed to calculate a motility index (MI) using an algorithm described previously. MIs were normalised to the negative and positive controls (to remove plate-to-plate variation) using the program Prism (v.6 GraphPad Software, USA). Z’-scores were calculated to validate the performance of the screening assay; reliable assays achieve Z’-scores of between 0.5 and 1 [28]. […] Compounds that reduced the motility of xL3s were also tested for their ability to inhibit the motility of L4s (same protocol as for xL3s) and/or to affect the development of xL3s to L4s. Following the measurement of L4 motility, larvae were re-incubated for 4 more days and fixed with 1 % iodine (50 μl). Then, L4 development was assessed based on the presence of a well-developed mouth/pharynx using a light microscope and expressed as a percentage of the total number of larvae examined (n = 30).
(§2) All assays (to assess xL3 motility, L4 development and L4 motility) were performed in triplicate, three times, on separate days.

[2] = system: exsheathed third-stage larvae (xL3s) of H. contortus; assay: xL3 motility assay (whole-organism screen and dose-response); type: cell-based, Haemonchus contortus
Description: as §1, with “[28]. A compound was recorded as having an activity if it reduced xL3 motility by ≥ 70 % following incubation for 72 h.” for “[28].”
as §2

[3] = Haemonchus contortus, 24 h; read-out: L4 motility (IC50s in μM)
[4] = Haemonchus contortus, 48 h; read-out: L4 motility (IC50s in μM)
[5] = Haemonchus contortus, 72 h; read-out: L4 motility (IC50s in μM)
[6] = Haemonchus contortus, 24 h; read-out: xL3 motility (IC50s in μM)
[7] = Haemonchus contortus, 48 h; read-out: xL3 motility (IC50s in μM)
[8] = Haemonchus contortus, 72 h; read-out: xL3 motility (IC50s in μM)
[9] = Haemonchus contortus, 72 h, 20 μM, 72 h; percent of motility compared with controls; mean of triplicate ± SEM; read-out: xL3 Motility Index(%)
[10] = Haemonchus contortus; 20 μM, 72 h; read-out: inhibition of xL3 motility in the primary screen

`C[C@](C#N)(COc1cc(C#N)ccc1C(F)(F)F)NC(=O)c1ccc(SC(F)(F)F)cc1` [Monepantel, reference compound] showed an IC50 [1, 3] of 4.3 µM, an IC50 [1, 4] of 2.2 µM and an IC50 [1, 5] of 3 µM. For the same molecule, the IC50 [2, 6] was about 52.1 µM, the IC50 [2, 7] was 6 µM and the IC50 [2, 8] was 0.4 µM.

`Oc1ccc(-c2cscc2-c2ccc(O)cc2Cl)c(Cl)c1` [MJ-17] was tested, and the IC50 [1, 3] was 13.9 µM, the IC50 [1, 4] was 6.2 µM and the IC50 [1, 5] was 6.1 µM. For the same molecule, the IC50 ([1]; Haemonchus contortus; read-out: L4 motility IC50 at both 48 h and 72 h) was 6.1 to 6.2 µM, the IC50 [2, 6] was 25.7 µM and the IC50 [2, 7] was 25.6 µM. For the same molecule, the activity at 20 µM [2, 9] was 20.6 ± 4.9%, the IC50 [2, 8] was 23.8 µM and the inhibition at 20 µM [2, 10] was over 70%. It also gave an IC50 ([2]; Haemonchus contortus; read-out: xL3 motility IC50 at both 48 h and 72 h) of 23.8 to 25.6 µM.

`CO/N=C1\C[C@]2(C[C@@H]3C[C@@H](C/C=C(\C)C[C@@H](C)/C=C/C=C4\CO[C@@H]5[C@H](O)C(C)=C[C@@H](C(=O)O3)[C@]45O)O2)O[C@H](/C(C)=C/C(C)C)[C@H]1C` [Moxidectin, reference compound] showed an IC50 [1, 3] of 2.2 µM, an IC50 [1, 4] of 0.6 µM and an IC50 [1, 5] of 0.0045 µM. The IC50 [2, 6] was 2.5 µM, the IC50 [2, 7] was 2.5 µM and the IC50 [2, 8] was 2.3 µM.

`Cc1cc(O)ccc1-c1ccc(-c2ccc(O)cc2F)s1` [MJ-22] showed an IC50 [1, 3] of 6.4 µM, an IC50 [1, 4] of 3.2 µM and an IC50 [1, 5] of 6.2 µM. For the same molecule, the IC50 [2, 6] was 6.6 µM, the IC50 [2, 7] was 7.2 µM and the activity at 20 µM [2, 9] was 6.7 ± 8.2%. It also gave an IC50 [2, 8] of 9.6 µM and an inhibition at 20 µM [2, 10] of over 70%.

For `Oc1ccc(-c2ccc(-c3ccc(O)cc3Cl)[se]2)c(Cl)c1` [WZY-2], the IC50 ([1]; Haemonchus contortus, 24 h, read-out: L4 motility (IC50s in μM)) was 9.3 µM, the IC50 ([1]; Haemonchus contortus, 48 h, read-out: L4 motility (IC50s in μM)) was 6.1 µM and the IC50 ([1]; Haemonchus contortus, 72 h, read-out: L4 motility (IC50s in μM)) was 6.2 µM. For the same molecule, the IC50 ([2]; Haemonchus contortus, 24 h, read-out: xL3 motility (IC50s in μM)) was 10 µM, the IC50 ([2]; Haemonchus contortus, 48 h, read-out: xL3 motility (IC50s in μM)) was 13 µM and the inhibition at 20 µM ([2]; Haemonchus contortus, 72 h, read-out: inhibition of xL3 motility in the primary screen) was over 70%. For the same molecule, the activity at 20 µM ([2]; Haemonchus contortus, 72 h, read-out: xL3 Motility Index(%), 20 μM, 72 h; percent of motility compared with controls; mean of triplicate ± SEM) was 12.3 ± 0.1% and the IC50 ([2]; Haemonchus contortus, 72 h, read-out: xL3 motility (IC50s in μM)) was 12.1 µM.
